For this assay, the target named is T1, CCR4 receptor (Homo sapiens, UniProt P51679).
T1 construct: beta-galactosidase enzyme-fragment tag (receptor modification for beta-arrestin complementation); expressed in transfected cells; host or cells: CHO-K1
T1 sequence (P51679 1-360): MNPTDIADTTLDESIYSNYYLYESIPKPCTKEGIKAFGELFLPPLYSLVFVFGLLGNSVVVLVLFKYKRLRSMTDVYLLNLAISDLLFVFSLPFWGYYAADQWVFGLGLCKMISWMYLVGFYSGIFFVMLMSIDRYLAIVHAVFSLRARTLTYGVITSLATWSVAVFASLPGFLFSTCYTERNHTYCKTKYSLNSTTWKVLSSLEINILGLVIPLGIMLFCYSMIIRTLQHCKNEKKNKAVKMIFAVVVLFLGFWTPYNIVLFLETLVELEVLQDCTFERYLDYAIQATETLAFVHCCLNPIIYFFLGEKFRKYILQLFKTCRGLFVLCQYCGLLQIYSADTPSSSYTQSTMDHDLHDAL
Description: CCR4 antagonist activity in beta-arrestin cellular assay (PathHunter chemiluminescence). To be noted: CHO-K1 cells expressing CCR4; 30 min pre-incubation; CCL22 challenge at EC80 (15 nM) for 90 minutes; read-out: Potency (CCR4 antagonist IC50 in the β-arrestin assay). The assay is classed as cell-based. As to the method: CCR4 Antagonistic Activity was assessed in Beta-Arrestin Cellular Assay. Compounds were assessed in CHO-K1 cells expressing the CCR4 receptor modified to enable β-glactosidase detection of p-arrestin agonist activity stimulated by CCL22 in a chemiluminescence assay. Cells were seeded in a total volume of 20 μL into white walled, 384-well microplates and incubated at 37° C. prior to testing. Cells were pre-incubated with test compound for 30 min at 37° C. followed by agonist challenge with CCL22 at the EC80 concentration (15 nM) for 90 minutes. Assay signal was generated through a single addition of 12.5 or 15 μL (50% v/v) of PathHunter Detection reagent cocktail, followed by a one hour incubation at room temperature. Microplates were read following signal generation with a PerkinElmer Envision™ instrument for chemiluminescent signal detection. Antagonist activity was analyzed using CBIS data analysis suite (ChemInnovation, CA). Antagonist activity was characterized as percentage inhibition calculated using the following formula: % Inhibition=100%×(1−(mean RLU of test sample−mean RLU of vehicle control)/(mean RLU of EC80 control−mean RLU of vehicle control)).
An IC50 of >500 nM is designated as Potency C, an IC50 of between 500 nM and 200 nM is designated as Potency B and an IC50 of <200 nM is designated as Potency A.

Molecules are shown by their SMILES.

What is called IC50 is the concentration that gives 50% inhibition.

As for `Cc1nc(N2CCC(C3CN(C4CC(C)(C(=O)O)C4)C3)C2)nc(N[C@H](C)c2ccc(Cl)cc2Cl)c1Cl` (mixture of isomers) [Example 3, 3-(3-(1-(5-chloro-4-(((R)-1-(2,4-dichlorophenyl)ethyl)amino)-6-methylpyrimidin-2-yl)pyrrolidin-3-yl)azetidin-1-yl)-1-methylcyclobutane-1-carboxylic Acid], the IC50 was above 500 nM.

`C[C@@H](Nc1nc(N2CCC(C3CCCN(C4CC(C)(C(=O)O)C4)C3)CC2)ncc1Cl)c1ccc(Cl)cc1Cl` (mixture of isomers) [Example 6, 3-(1′-(5-chloro-4-(((R)-1-(2,4-dichlorophenyl)ethyl)amino)pyrimidin-2-yl)-[3,4′-bipiperidin]-1-yl)-1-methylcyclobutane-1-carboxylic Acid]: the concentration for half-maximal inhibition (IC50) is below 200 nM.

For the compound `C[C@@H](Nc1nc(N2CCC(C3CCCCN3)C2)ncc1Cl)c1ccc(Cl)cc1Cl` (mixture of isomers) [Example 8, 5-chloro-N—((R)-1-(2,4-dichlorophenyl)ethyl)-2-(3-(piperidin-2-yl)pyrrolidin-1-yl)pyrimidin-4-amine], the IC50 was below 200 nM.

For `Cc1nc(N2CCC(C3CCCCN3)C2)nc(N[C@H](C)c2ccc(Cl)cc2Cl)c1Cl` (mixture of isomers) [Example 10, 5-chloro-N—((R)-1-(2,4-dichlorophenyl)ethyl)-6-methyl-2-(3-(piperidin-2-yl)pyrrolidin-1-yl)pyrimidin-4-amine], the half-inhibitory concentration (IC50) is 200 to 500 nM.

Regarding `Cc1nc(N2CCC(C3CCCN(C4CC(C)(C(=O)O)C4)C3)C2)nc(N[C@H](C)c2ccc(Cl)cc2Cl)c1Cl` (stereo partly drawn) [Example 1, 3-(3-(1-(5-chloro-4-(((R)-1-(2,4-dichlorophenyl)ethyl)amino)-6-methylpyrimidin-2-yl)pyrrolidin-3-yl)piperidin-1-yl)-1-methylcyclobutane-1-carboxylic Acid], the IC50 was below 200 nM.

In the case of `Cc1nc(N2CCC(C3CCCN(C4CC(C)(C(=O)O)C4)C3)CC2)nc(N[C@H](C)c2ccc(Cl)cc2Cl)c1Cl` (stereo partly drawn) [Example 2, 3-(1′-(5-chloro-4-(((R)-1-(2,4-dichlorophenyl)ethyl)amino)-6-methylpyrimidin-2-yl)-[3,4′-bipiperidin]-1-yl)-1-methylcyclobutane-1-carboxylic Acid], the half-maximal inhibitory concentration (IC50) is below 200 nM.

Take `Cc1nc(N2CCC(C3CCN(C4CC(C)(C(=O)O)C4)C3)C2)nc(N[C@H](C)c2ccc(Cl)cc2Cl)c1Cl` (stereo partly drawn) [Example 4, 3-(1′-(5-chloro-4-(((R)-1-(2,4-dichlorophenyl)ethyl)amino)-6-methylpyrimidin-2-yl)-[3,3′-bipyrrolidin]-1-yl)-1-methylcyclobutane-1-carboxylic Acid]: the IC50 lay in the range of 200 to 500 nM.

Regarding `C[C@@H](Nc1nc(N2CCC(C3CCCN(C4CC(C)(C(=O)O)C4)C3)C2)ncc1Cl)c1ccc(Cl)cc1Cl` (stereo partly drawn) [Example 5, 3-(3-(1-(5-chloro-4-(((R)-1-(2,4-dichlorophenyl)ethyl)amino)pyrimidin-2-yl)pyrrolidin-3-yl)piperidin-1-yl)-1-methylcyclobutane-1-carboxylic Acid], the half-maximal inhibitory concentration (IC50) was below 200 nM.

For `C[C@@H](Nc1nc(N2CCC(C3CCN(C4CC(C)(C(=O)O)C4)C3)C2)ncc1Cl)c1ccc(Cl)cc1Cl` (stereo partly drawn) [Example 7, 3-(1′-(5-chloro-4-(((R)-1-(2,4-dichlorophenyl)ethyl)amino)pyrimidin-2-yl)-[3,3′-bipyrrolidin]-1-yl)-1-methylcyclobutane-1-carboxylic Acid], the IC50 fell in the range of 200 to 500 nM.

Turning to `C[C@@H](Nc1nc(N2CCC(C3CCCCN3C3CC(C)(C(=O)O)C3)C2)ncc1Cl)c1ccc(Cl)cc1Cl` (stereo partly drawn) [Example 9, 3-(2-(1-(5-chloro-4-(((R)-1-(2,4-dichlorophenyl)ethyl)amino)pyrimidin-2-yl)pyrrolidin-3-yl)piperidin-1-yl)-1-methylcyclobutane-1-carboxylic Acid], the IC50 is below 200 nM.

For the compound `Cc1nc(N2CCC(C3CCCCN3C3CC(C)(C(=O)O)C3)C2)nc(N[C@H](C)c2ccc(Cl)cc2Cl)c1Cl` (stereo partly drawn) [Example 11, 3-(2-(1-(5-chloro-4-(((R)-1-(2,4-dichlorophenyl)ethyl)amino)-6-methylpyrimidin-2-yl)pyrrolidin-3-yl)piperidin-1-yl)-1-methylcyclobutane-1-carboxylic Acid], the half-maximal inhibitory concentration (IC50) fell in the range of 200 to 500 nM.

`C[C@@H](Nc1nc(N2CCC(C3CCCN(C4CC(C(=O)O)C4)C3)CC2)ncc1Cl)c1ccc(Cl)cc1Cl` (stereo partly drawn) [Example 12, 3-(1′-(5-chloro-4-(((R)-1-(2,4-dichlorophenyl)ethyl)amino)pyrimidin-2-yl)-[3,4′-bipiperidin]-1-yl)cyclobutane-1-carboxylic Acid]: the IC50 was below 200 nM.

Regarding `Cc1nc(N2CCC(C3CCCN(C4CC(C(=O)O)C4)C3)CC2)nc(N[C@H](C)c2ccc(Cl)cc2Cl)c1Cl` (stereo partly drawn) [Example 13, 3-(1′-(5-chloro-4-(((R)-1-(2,4-dichlorophenyl)ethyl)amino)-6-methylpyrimidin-2-yl)-[3,4′-bipiperidin]-1-yl)cyclobutane-1-carboxylic Acid], the concentration for half-maximal inhibition (IC50) is below 200 nM.

`Cc1nc(N2CCC(C3CCCN(C(C)C(=O)O)C3)CC2)nc(N[C@H](C)c2ccc(Cl)cc2Cl)c1Cl` (stereo partly drawn) [Example 14, 2-(1′-(5-chloro-4-(((R)-1-(2,4-dichlorophenyl)ethyl)amino)-6-methylpyrimidin-2-yl)-[3,4′-bipiperidin]-1-yl)propanoic Acid]: the IC50 is below 200 nM.

`CC(C(=O)O)N1CCCC(C2CCN(c3ncc(Cl)c(N[C@H](C)c4ccc(Cl)cc4Cl)n3)CC2)C1` (stereo partly drawn) [Example 15, 2-(1′-(5-chloro-4-(((R)-1-(2,4-dichlorophenyl)ethyl)amino)pyrimidin-2-yl)-[3,4′-bipiperidin]-1-yl)propanoic Acid]: the half-inhibitory concentration (IC50) is below 200 nM.

For `C[C@@H](Nc1nc(N2CCC(C3CCCN(CCC(=O)O)C3)CC2)ncc1Cl)c1ccc(Cl)cc1Cl` (stereo partly drawn) [Example 16, 3-(1′-(5-chloro-4-(((R)-1-(2,4-dichlorophenyl)ethyl)amino)pyrimidin-2-yl)-[3,4′-bipiperidin]-1-yl)propanoic Acid], the IC50 was below 200 nM.

Regarding `Cc1nc(N2CCC(C3CCCN(CCC(=O)O)C3)CC2)nc(N[C@H](C)c2ccc(Cl)cc2Cl)c1Cl` (stereo partly drawn) [Example 17, 3-(1′-(5-chloro-4-(((R)-1-(2,4-dichlorophenyl)ethyl)amino)-6-methylpyrimidin-2-yl)-[3,4′-bipiperidin]-1-yl)propanoic Acid], the IC50 was below 200 nM.

(Values after US12240837B2, “Chemokine receptor modulators and uses thereof” (RAPT THERAPEUTICS, INC., priority 2022, dated 2025).)
